Target: T1, LgtD protein (Haemophilus influenzae, UniProt Q57287)
T1 construct: made in house; host or cells: strain overexpressing lgtD; E. coli K12 derivative is inferred from the lgtD strains described, e.g. TA21 with pACT3-lgtD; used as crude extract
Assay: enzymatic assays with crude extracts from a strain overexpressing the lgtD gene (donor Km with globotriose or globotetraose as acceptor)
Format: biochemical

T1 sequence (Q57287 whole entry): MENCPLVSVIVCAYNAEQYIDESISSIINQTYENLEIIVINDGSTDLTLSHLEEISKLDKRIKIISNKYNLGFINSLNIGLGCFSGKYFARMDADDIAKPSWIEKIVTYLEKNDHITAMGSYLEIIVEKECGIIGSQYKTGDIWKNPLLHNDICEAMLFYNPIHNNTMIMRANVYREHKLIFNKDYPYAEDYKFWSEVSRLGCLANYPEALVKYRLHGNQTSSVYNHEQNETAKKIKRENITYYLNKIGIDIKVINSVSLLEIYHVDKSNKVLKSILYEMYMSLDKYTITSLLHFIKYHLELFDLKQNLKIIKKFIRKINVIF

CC(=O)N[C@H]1[C@@H](OP(=O)(O)OP(=O)(O)OC[C@H]2O[C@@H](n3ccc(=O)[nH]c3=O)[C@H](O)[C@@H]2O)O[C@H](CO)[C@H](O)[C@@H]1O [UDP-GalNAc]
Km for UDP-GalNAc, fold lower than for UDP-Gal (globotriose as the acceptor): 6 fold
fold increase in the Km for UDP-GalNAc (replacement of globotriose by globotetraose as the acceptor): 20 fold
